From patent publication US10111897B2, “Compositions and methods for treating cancer with JAK2 activity” (Duke University, priority 2013, dated 2018)

Columns and labels:
HEL92.1.7 cells = test: GI50 assay (Cell Titer Glo viability); type: cell-based, human; conditions: for resensitization of Ras-expressing cells to INCB, dual ERK and Akt inhibition: INCB with both VX-11E (2 μM) and MK-2206 (10 μM); for sensitivity of parental and engineered Ras effector-activated cells (viability and apoptosis): HEL92.1.7 ORF-expressing derivatives, apoptosis at 48 hours
Description: (§1) Cells were seeded into 6-well plates and infected with the desired ORF activating allele or control vector. Lentiviruses were produced and applied as previously described (42). Following two days of puromycin selection (2 μg/ml), infected cells were seeded into 96-well plates at 5,000 cells/well.
(§2) To generate […] curves, cells were treated with vehicle (DMSO) or an eight-log serial dilution of drug to yield final concentrations of […]. Each treatment condition was represented by at least three replicates. Three to four days after drug addition, cell viability was measured using Cell Titer Glo® (Promega). Relative viability was then calculated by normalizing luminescence values for each treatment condition to control treated wells.
(§3) To generate GI50 curves for drug combinations, slight modifications are made. Primary drug was applied and diluted as above while the second drug was kept at a constant concentration across all wells except the DMSO-only condition. Viability for all primary drug dilutions was then calculated relative to luminescence values from the secondary drug-only condition. Dose-response curves were fit using Graph pad/Prism 6 software.

Set2 cells = test: GI50 assay (Cell Titer Glo viability); type: cell-based, human; conditions: for sensitivity of parental and engineered Ras effector-activated cells (relative proliferation): Set2 ORF-expressing derivatives; for sensitization of resistant and parental Set2 cells to JAK inhibitors, co-inhibition of Akt and ERK pathways: MK-2206 plus AZD-6244 (2 μM) plus respective JAK inhibitor
Description: as §1, §2, §3

[1] = JAK inhibitor combined with ABT-737; cited from earlier work
BAD = BAD phosphorylation immunoblot in HEL92.1.7 derivatives; type: cell-based, human; conditions: Ras (G12V)-transduced HEL92.1.7, 6 hours of treatment
Description: FIG. 10. BAD activity, governed by phosphorylation status at Ser 112 and 136, dictates drug sensitivity and induction of apoptosis in both the drug-sensitive and resistant state. (A-C) After 6 hours of treatment with the specified drugs, protein lysates were prepared from either myr-Akt-transduced HEL92.1.7 (A), Ras (G12V)-transduced HEL92.1.7 (B), Set2-Parental, or Set2-CYTR cells (C) and immunoblotted with the indicated antibodies. Blots are representative of three replicate experiments. […] (E, F) HEL92.1.7 derivatives stably expressing the indicated ORFs were transduced with a second ORF expressing either a second control vector or BAD2SA. (E) Twenty-four hours after selection, cells were stained with 7AAD and Annexin V to measure the induction of apoptosis. Error bars indicate SD of three replicate experiments.
Immunoblotting was performed as previously described (42) and membranes were probed with primary antibodies (1:1000 dilution) recognizing p-STAT5, STAT5, p-STAT3, STAT3, BAD, p-BAD Ser112, p-BAD Ser136, p-Akt (Thr308), Akt, p-ERK1/2 (Thr202/Tyr204), ERK1/2, Pim1, BCL-XL, BCL-2, MCL-1, Bim, Bax, Bak, NaATPase, and β-Actin. All antibodies were purchased from Cell Signaling Technology.

[2] = test system: multiple JAK2^V617F cell lines; conditions: parental JAK2^V617F cell lines (HEL92.1.7 72 h, Set2 24 h)
Description: Error bars indicate SD of three replicate experiments. (B) Digitonin-permeabilized HEL92.1.7 cells transduced with the indicated constructs were stained with the mitochondrial potential-sensitive JC1 dye and treated with a panel of BH3 peptides. Percent depolarization is shown as the area under the curve (AUC) normalized to positive control fully depolarized mitochondria (FCCP). DMSO serves as the negative control. Data shown are representative of three independent experiments for each cell line derivative. (C) Same as in (B) except in this case the indicated JAK2^V617F positive cell lines were profiled to query their apoptotic dependencies. […] Blots are representative of three replicate experiments. (E) Twenty-four hours after transduction with the indicated ORFs, HMLE and HEL92.1.7 cells were stained with 7AAD and Annexin V to measure induction of apoptosis. Error bars indicate SD of three replicate experiments.
Cells were seeded in six-well plates and treated with either the indicated amount of drug or vehicle (DMSO). Cells were incubated for the indicated time, washed twice with ice-cold PBS, and resuspended in IX Annexin V binding buffer (10 mM HEPES, 140 mM NaCl, 2.5 mM CaCl2; BD Biosciences). Surface exposure of phosphatidylserine was measured using APC-conjugated Annexin V (BD Biosciences). […] Experiments were analyzed at 20,000 counts/sample using BD FACSVantage SE. […]

[3] = patients suffering from MPNs; cited from earlier work

Structure (SMILES)	resensitization of Ras-expressing cells to INCB, dual ERK and Akt inhibition (HEL92.1.7 cells)	sensitivity of parental and engineered Ras effector-activated cells (viability and apoptosis) (HEL92.1.7 cells)	sensitivity of parental and engineered Ras effector-activated cells (relative proliferation) (Set2 cells)	sensitization of resistant and parental Set2 cells to JAK inhibitors, co-inhibition of Akt and ERK pathways (Set2 cells)	other results
Cc1cnc(Nc2ccc(F)cc2Cl)nc1-c1c[nH]c(C(=O)N[C@H](CO)c2cccc(Cl)c2)c1 [VX-11E]	resensitized				
CN(C)CC[C@H](CSc1ccccc1)Nc1ccc(S(=O)(=O)NC(=O)c2ccc(N3CCN(Cc4ccccc4-c4ccc(Cl)cc4)CC3)cc2)cc1[N+](=O)[O-] [ABT-737]		sensitive	sensitive		sensitivity of independently evolved JAK inhibitor-resistant cells compared to matched parental cells (Set2 cells; Set2-INCBR and Set2-CYTR vs Set2-Parental): equally sensitive; responses relative to JAK inhibitor monotherapy [1]: improved responses
CC1(C)CCC(CN2CCN(c3ccc(C(=O)NS(=O)(=O)c4ccc(NCC5CCOCC5)c([N+](=O)[O-])c4)c(Oc4cnc5[nH]ccc5c4)c3)CC2)=C(c2ccc(Cl)cc2)C1 [ABT-199]		insensitive	insensitive		
Cn1cnc2c(F)c(Nc3ccc(Br)cc3Cl)c(C(=O)NOCCO)cc21 [AZD-6244]				further sensitized	
N#CC[C@H](C1CCCC1)n1cc(-c2ncnc3[nH]ccc23)cn1 [INCB]					BAD phosphorylation at Ser 112 and 136 in Ras-expressing cells (BAD): remained phosphorylated; induction of apoptosis (Annexin-V staining) [2]: induces apoptosis; patients with transient reduction of spleen size and alleviation of some symptoms [3]: about 50 % of patients
NC1(c2ccc(-c3nc4ccn5c(=O)[nH]nc5c4cc3-c3ccccc3)cc2)CCC1 [MK-2206]	resensitized			further sensitized	resensitization of Akt-expressing cells to INCB (HEL92.1.7 cells; INCB plus second drug at constant concentration (MK-2206 10 μM; BEZ-235 0.2 μM)): fully resensitized; resensitization of Set2-CYTR and Set2-INCBR cells to JAK inhibitors (Set2 cells; Akt inhibition with MK-2206 plus respective JAK inhibitor, compared with parental GI50 values): resensitized
